Source: patent publication US20240245786A1, “SMALL MOLECULE DEGRADERS OF PHOSPHATIDYLINOSITOL-5-PHOSPHATE 4-KINASE TYPE 2 AND USES THEREOF” (DANA-FARBER CANCER INSTITUTE, INC., priority 2020, published 2024)

How the values were obtained:
[1] = target: T1, PIP4K2A (Homo sapiens, UniProt P48426); assay: IC50 for bifunctional compound 1, PIP4K2A (biochemical binding affinity)
T1 sequence (P48426 1-406): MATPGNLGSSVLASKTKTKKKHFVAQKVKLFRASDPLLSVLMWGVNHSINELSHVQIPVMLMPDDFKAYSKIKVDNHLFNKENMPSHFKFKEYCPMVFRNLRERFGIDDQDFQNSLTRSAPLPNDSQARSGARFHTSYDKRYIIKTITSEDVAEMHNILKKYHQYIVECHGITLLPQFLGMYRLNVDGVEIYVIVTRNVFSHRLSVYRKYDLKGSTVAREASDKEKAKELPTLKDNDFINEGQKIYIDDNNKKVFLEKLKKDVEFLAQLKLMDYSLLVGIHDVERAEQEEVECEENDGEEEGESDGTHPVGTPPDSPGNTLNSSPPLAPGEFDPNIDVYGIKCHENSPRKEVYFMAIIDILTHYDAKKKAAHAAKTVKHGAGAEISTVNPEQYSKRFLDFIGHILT

[2] = target: T2, PIP4K2B (Homo sapiens, UniProt P78356); assay: IC50 for bifunctional compound 1, PIP4K2B (biochemical binding affinity)
T2 sequence (P78356 1-416): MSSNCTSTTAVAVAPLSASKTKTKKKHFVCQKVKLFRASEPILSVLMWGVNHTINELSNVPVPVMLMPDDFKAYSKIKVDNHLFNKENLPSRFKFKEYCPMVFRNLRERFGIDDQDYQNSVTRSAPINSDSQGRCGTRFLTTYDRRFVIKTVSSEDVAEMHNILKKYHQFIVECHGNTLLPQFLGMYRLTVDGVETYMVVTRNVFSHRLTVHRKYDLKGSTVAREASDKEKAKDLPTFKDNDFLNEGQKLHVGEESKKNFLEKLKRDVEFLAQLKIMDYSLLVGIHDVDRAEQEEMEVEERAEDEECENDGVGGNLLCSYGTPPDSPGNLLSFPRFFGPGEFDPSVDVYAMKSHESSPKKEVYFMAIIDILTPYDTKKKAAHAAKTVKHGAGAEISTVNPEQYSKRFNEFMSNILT

[3] = target: T3, ETS2 Repressor Factor (ERF) (Homo sapiens, UniProt P50548); assay: Proteomics analysis (TMT LC-MS3) of Molt4 cells, ERF; conditions: 1 μM, 5 h
T3 sequence (P50548 1-548): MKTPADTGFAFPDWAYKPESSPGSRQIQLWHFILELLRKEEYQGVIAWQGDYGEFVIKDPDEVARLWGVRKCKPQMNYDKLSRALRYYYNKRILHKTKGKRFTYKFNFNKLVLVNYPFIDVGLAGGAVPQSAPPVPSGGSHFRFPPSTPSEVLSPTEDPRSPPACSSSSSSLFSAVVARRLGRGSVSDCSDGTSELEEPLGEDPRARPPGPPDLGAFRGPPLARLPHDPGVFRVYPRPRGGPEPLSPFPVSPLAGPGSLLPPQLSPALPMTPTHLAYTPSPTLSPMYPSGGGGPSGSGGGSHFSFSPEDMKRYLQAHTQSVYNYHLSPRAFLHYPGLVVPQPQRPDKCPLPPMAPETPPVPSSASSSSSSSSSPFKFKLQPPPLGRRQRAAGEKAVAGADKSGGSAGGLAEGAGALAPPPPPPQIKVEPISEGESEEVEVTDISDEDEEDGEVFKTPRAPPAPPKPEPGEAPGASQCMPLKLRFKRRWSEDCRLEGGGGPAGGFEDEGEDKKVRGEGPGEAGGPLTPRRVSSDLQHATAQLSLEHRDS
Description: (§1) Molt4 cells were treated with DMSO or the indicated compound for 5 h, and cells were harvested by centrifugation. […] The homogenized sample was clarified by centrifugation at 20,000×g for 10 min at 4° C. A micro-BCA assay (Pierce™) was used to determine the final protein concentration in the cell lysate. […] Proteins were precipitated using methanol/chloroform. In brief, four volumes of methanol were added to the cell lysate, followed by one volume of chloroform, and finally three volumes of water. The mixture was vortexed and centrifuged at 14,000×g for 5 min to separate the chloroform phase from the aqueous phase. […] The sample channels were combined in a 1:1:1:1:1:1:1:1:1:1 ratio, desalted using C18 solid phase extraction cartridges (Waters®) and analyzed by liquid chromatography-mass spectrometry (LC-MS) for channel ratio comparison. Samples were then combined using the adjusted volumes determined in the channel ratio analysis and dried down in a speed vacuum. […]
(§2) Proteome Discoverer™ 2.2 (Thermo Fisher) was used for RAW file processing and controlling peptide and protein level false discovery rates, assembling proteins from peptides, and protein quantification from peptides. […] TMT reporter ion intensities were measured using a 0.003 Da window around the theoretical m z for each reporter ion in the MS3 scan. […]

[4] = target: T1, PIP4K2A; assay: Proteomics analysis (TMT LC-MS3) of Molt4 cells, PIP4K2A abundance; conditions: 1 μM, 5 h
Description: as §1, §2

[5] = target: T2, PIP4K2B; assay: Proteomics analysis (TMT LC-MS3) of Molt4 cells, PIP4K2B abundance; conditions: 1 μM, 5 h
Description: as §1, §2

[6] = target: T3, ETS2 Repressor Factor (ERF); assay: Immunoblot of ERF degradation in Molt4 cells (FIG. 1D); format: cell-based; set-up: immunoblot of PIP4K2A, PIP4K2B, PIP4K2C, and ERF degradation in Molt4 cells; endogenous in cells; host or cells: Molt4; conditions: 6 h or 8 h
Description: Molt4 cells were treated with the indicated compounds for the indicated time in FIG. 1A-FIG. 1F and FIG. 3A-FIG. 3B. Cells were lysed in M-PER™ buffer (Thermo Scientific) containing protease/phosphatase inhibitor cocktail (Roche®). Protein concentration was measured using a bicinchoninic acid (BCA) assay (Pierce™). Equivalent amounts of each sample were loaded on 4-12% Bis-Tris gels (Invitrogen™), transferred to nitrocellulose membranes, and immunoblotted with antibodies against the indicated proteins. IRDye®800-labeled goat anti-rabbit IgG and IRDye®680-labeled goat anti-mouse IgG (LI-COR®) secondary antibodies were purchased for LI-COR®, and membranes were detected on an Odyssey® detection system (LI-COR® Biosciences).

Cc1ncsc1-c1ccc([C@H](C)NC(=O)C2C[C@@H](O)CN2C(=O)[C@@H](NC(=O)CCCCC(=O)Nc2ccc(C(=O)Nc3cccc(Nc4cc(-c5c[nH]c6ccccc56)ncn4)c3)cc2)C(C)(C)C)cc1 (stereo partly drawn) [Compound 1, N1-(4-((3-((6-(1H-indol-3-yl)pyrimidin-4-yl)amino)phenyl)carbamoyl)phenyl)-N6-((2S)-1-((4R)-4-hydroxy-2-(((S)-1-(4-(4-methylthiazol-5-yl)phenyl)ethyl)carbamoyl)pyrrolidin-1-yl)-3,3-dimethyl-1-oxobutan-2-yl)adipamide]
IC50 [1]: > 10 µM | IC50 [2]: 14 µM | ERF degradation, validation by proteomics analysis [3]: not validated as a confirmed degraded protein | change in abundance of PIP4K2A (proteomics) [4]: no detectable change in abundance | change in abundance of PIP4K2B (proteomics) [5]: no detectable change in abundance | ERF degradation, as seen in FIG. 1D [6]: scored as a potential degraded protein
